According to article PMC7088215 (The Protein Journal, 2015):

Key:
SaPriA (PriA helicase) [1] = target: T1, SaPriA (PriA helicase) (Staphylococcus aureus, UniProt Q2G266); assay: intrinsic fluorescence quenching titration of purified SaPriA; type: binding
T1 sequence (Q2G266 1-802): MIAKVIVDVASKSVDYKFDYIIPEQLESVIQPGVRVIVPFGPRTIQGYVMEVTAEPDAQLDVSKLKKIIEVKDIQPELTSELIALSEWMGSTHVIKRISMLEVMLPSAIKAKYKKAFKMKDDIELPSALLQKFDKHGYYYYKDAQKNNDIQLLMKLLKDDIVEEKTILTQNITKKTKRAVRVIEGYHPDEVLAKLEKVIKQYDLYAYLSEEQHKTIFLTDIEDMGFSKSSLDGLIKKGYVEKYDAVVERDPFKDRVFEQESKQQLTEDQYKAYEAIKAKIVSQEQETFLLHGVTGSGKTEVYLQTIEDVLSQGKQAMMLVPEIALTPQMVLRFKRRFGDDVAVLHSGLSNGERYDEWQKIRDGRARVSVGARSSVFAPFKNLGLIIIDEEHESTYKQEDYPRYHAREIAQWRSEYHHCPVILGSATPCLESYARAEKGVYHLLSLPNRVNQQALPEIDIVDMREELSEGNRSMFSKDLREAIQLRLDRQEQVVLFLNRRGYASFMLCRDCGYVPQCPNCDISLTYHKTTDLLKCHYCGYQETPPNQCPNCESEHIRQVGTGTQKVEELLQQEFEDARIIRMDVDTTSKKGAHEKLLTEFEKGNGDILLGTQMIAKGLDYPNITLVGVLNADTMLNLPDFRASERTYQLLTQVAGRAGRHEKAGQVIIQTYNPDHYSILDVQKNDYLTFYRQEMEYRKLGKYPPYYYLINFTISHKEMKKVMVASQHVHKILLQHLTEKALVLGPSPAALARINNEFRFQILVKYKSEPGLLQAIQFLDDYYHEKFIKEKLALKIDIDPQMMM

SaPriA (PriA helicase) [2] = target: T1, SaPriA (PriA helicase); assay: vanadate-sensitive colorimetric ATPase assay, single concentration of […]; type: biochemical; conditions: read-out: %

Compound `O=c1c(O)c(-c2ccc(O)cc2)oc2cc(O)cc(O)c12` [kaempferol] has a Kd (SaPriA (PriA helicase) [1]) of 9.1 ± 3.2 µM.
`O=c1c(O)c(-c2cc(O)c(O)c(O)c2)oc2cc(O)cc(O)c12` [myricetin] showed an activity at 35 µM (SaPriA (PriA helicase) [2]) of 69%.
